Relative viability data for five compounds are collected here from the supplement of paper PMC10307832.

The test system of one assay is COR-L23. As to the kind of experiment: relative viability (nuclei count vs DMSO), 5 days (fraction); higher = more cells survive. To be noted: first compound 0.2 µM. A digest of the protocol:
(§1)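 Relative viability was taken as the ratio of nuclei in treated wells to nuclei in vehicle wells. Lung cancer cell lines in 1536-well plates received compounds by pin tool one day after seeding, either one drug alone or a fixed anchor-drug dose plus five library-drug doses (not always all listed) in √10 steps. Nuclei were counted on 4× images after 5 days of treatment, and values are medians of duplicate plates.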
As to `COCC1(CO)C(=O)C2CCN1CC2` (centres undefined) [PRIMA-1MET] + N=C(N)NC(=N)NCCc1ccccc1 [Phenformin] (partner 250 µM), the relative viability turned out to be 0.554.

As to `COCC1(CO)C(=O)C2CCN1CC2` (centres undefined) [PRIMA-1MET] + Cc1nc(Nc2ncc(C(=O)Nc3c(C)cccc3Cl)s2)cc(N2CCN(CCO)CC2)n1 [Dasatinib] (partner 0.075 µM), the relative viability came out at 0.508.

Staying with this assay, now noted: first compound 0.6325 µM.
`COCC1(CO)C(=O)C2CCN1CC2` (centres undefined) [PRIMA-1MET] + Cc1cc(Nc2cc(N3CCN(C)CC3)nc(Sc3ccc(NC(=O)C4CC4)cc3)n2)n[nH]1 [Tozasertib] (partner 0.1 µM) came in with a relative viability of 0.285.

`COCC1(CO)C(=O)C2CCN1CC2` (centres undefined) [PRIMA-1MET] + COc1cc2c(Oc3ccc(NC(=O)C4(C(=O)Nc5ccc(F)cc5)CC4)cc3F)ccnc2cc1OCCCN1CCOCC1 [Foretinib] (partner 0.25 µM): the relative viability was 0.956.

For `COCC1(CO)C(=O)C2CCN1CC2` (centres undefined) [PRIMA-1MET] + COc1cccc2cc(-c3nc([C@H]4CC[C@H](C(=O)O)CC4)n4ncnc(N)c34)[nH]c12 [OSI-027] (partner 0.5 µM), the relative viability amounted to 0.679.

With `COCC1(CO)C(=O)C2CCN1CC2` (centres undefined) [PRIMA-1MET] + N=C(N)NC(=N)NCCc1ccccc1 [Phenformin] (partner 250 µM), the relative viability was 0.413.

`COCC1(CO)C(=O)C2CCN1CC2` (centres undefined) [PRIMA-1MET] + Cc1nc(Nc2ncc(C(=O)Nc3c(C)cccc3Cl)s2)cc(N2CCN(CCO)CC2)n1 [Dasatinib] (partner 0.075 µM) showed a relative viability of 0.478.

The assay is the same for the next values; noted with them: first compound 2 µM.
`COCC1(CO)C(=O)C2CCN1CC2` (centres undefined) [PRIMA-1MET] + Cc1cc(Nc2cc(N3CCN(C)CC3)nc(Sc3ccc(NC(=O)C4CC4)cc3)n2)n[nH]1 [Tozasertib] (partner 0.1 µM) displayed a relative viability of 0.212.

Turning to `COCC1(CO)C(=O)C2CCN1CC2` (centres undefined) [PRIMA-1MET] + COc1cc2c(Oc3ccc(NC(=O)C4(C(=O)Nc5ccc(F)cc5)CC4)cc3F)ccnc2cc1OCCCN1CCOCC1 [Foretinib] (partner 0.25 µM), the relative viability was 0.95.

The compound `COCC1(CO)C(=O)C2CCN1CC2` (centres undefined) [PRIMA-1MET] + COc1cccc2cc(-c3nc([C@H]4CC[C@H](C(=O)O)CC4)n4ncnc(N)c34)[nH]c12 [OSI-027] (partner 0.5 µM) registered a relative viability of 0.728.

In turn, `COCC1(CO)C(=O)C2CCN1CC2` (centres undefined) [PRIMA-1MET] + N=C(N)NC(=N)NCCc1ccccc1 [Phenformin] (partner 250 µM) returned a relative viability of 0.477.

`COCC1(CO)C(=O)C2CCN1CC2` (centres undefined) [PRIMA-1MET] + Cc1nc(Nc2ncc(C(=O)Nc3c(C)cccc3Cl)s2)cc(N2CCN(CCO)CC2)n1 [Dasatinib] (partner 0.075 µM): the relative viability was found to be 0.595.

Still in this assay, the particulars now being: first compound 6.325 µM.
The compound `COCC1(CO)C(=O)C2CCN1CC2` (centres undefined) [PRIMA-1MET] + Cc1cc(Nc2cc(N3CCN(C)CC3)nc(Sc3ccc(NC(=O)C4CC4)cc3)n2)n[nH]1 [Tozasertib] (partner 0.1 µM) gave a relative viability of 0.195.

`COCC1(CO)C(=O)C2CCN1CC2` (centres undefined) [PRIMA-1MET] + COc1cc2c(Oc3ccc(NC(=O)C4(C(=O)Nc5ccc(F)cc5)CC4)cc3F)ccnc2cc1OCCCN1CCOCC1 [Foretinib] (partner 0.25 µM) had a relative viability of 1.06.

`COCC1(CO)C(=O)C2CCN1CC2` (centres undefined) [PRIMA-1MET] + COc1cccc2cc(-c3nc([C@H]4CC[C@H](C(=O)O)CC4)n4ncnc(N)c34)[nH]c12 [OSI-027] (partner 0.5 µM) registered a relative viability of 0.744.

In turn, `COCC1(CO)C(=O)C2CCN1CC2` (centres undefined) [PRIMA-1MET] + N=C(N)NC(=N)NCCc1ccccc1 [Phenformin] (partner 250 µM) returned a relative viability of 0.343.

`COCC1(CO)C(=O)C2CCN1CC2` (centres undefined) [PRIMA-1MET] + Cc1nc(Nc2ncc(C(=O)Nc3c(C)cccc3Cl)s2)cc(N2CCN(CCO)CC2)n1 [Dasatinib] (partner 0.075 µM) had a relative viability of 0.432.

The assay is the same for the next values; noted with them: first compound 20 µM.
As for `COCC1(CO)C(=O)C2CCN1CC2` (centres undefined) [PRIMA-1MET] + Cc1cc(Nc2cc(N3CCN(C)CC3)nc(Sc3ccc(NC(=O)C4CC4)cc3)n2)n[nH]1 [Tozasertib] (partner 0.1 µM), the relative viability was 0.0198.

In turn, `COCC1(CO)C(=O)C2CCN1CC2` (centres undefined) [PRIMA-1MET] + COc1cc2c(Oc3ccc(NC(=O)C4(C(=O)Nc5ccc(F)cc5)CC4)cc3F)ccnc2cc1OCCCN1CCOCC1 [Foretinib] (partner 0.25 µM) gave a relative viability of 0.0732.

For `COCC1(CO)C(=O)C2CCN1CC2` (centres undefined) [PRIMA-1MET] + COc1cccc2cc(-c3nc([C@H]4CC[C@H](C(=O)O)CC4)n4ncnc(N)c34)[nH]c12 [OSI-027] (partner 0.5 µM), the relative viability worked out at 0.0162.

On to `COCC1(CO)C(=O)C2CCN1CC2` (centres undefined) [PRIMA-1MET] + N=C(N)NC(=N)NCCc1ccccc1 [Phenformin] (partner 250 µM), for which the relative viability is 0.0169.

For `COCC1(CO)C(=O)C2CCN1CC2` (centres undefined) [PRIMA-1MET] + Cc1nc(Nc2ncc(C(=O)Nc3c(C)cccc3Cl)s2)cc(N2CCN(CCO)CC2)n1 [Dasatinib] (partner 0.075 µM), the relative viability came out at 0.0161.

Another assay has as its system ChaGo-K-1. The assay is described as above. The conditions noted are these: first compound 0.2 µM. The essentials: as §1
In turn, `COCC1(CO)C(=O)C2CCN1CC2` (centres undefined) [PRIMA-1MET] + Cc1cc(Nc2cc(N3CCN(C)CC3)nc(Sc3ccc(NC(=O)C4CC4)cc3)n2)n[nH]1 [Tozasertib] (partner 0.1 µM) returned a relative viability of 0.209.

`COCC1(CO)C(=O)C2CCN1CC2` (centres undefined) [PRIMA-1MET] + COc1cc2c(Oc3ccc(NC(=O)C4(C(=O)Nc5ccc(F)cc5)CC4)cc3F)ccnc2cc1OCCCN1CCOCC1 [Foretinib] (partner 0.25 µM): the relative viability came out at 1.03.

The compound `COCC1(CO)C(=O)C2CCN1CC2` (centres undefined) [PRIMA-1MET] + COc1cccc2cc(-c3nc([C@H]4CC[C@H](C(=O)O)CC4)n4ncnc(N)c34)[nH]c12 [OSI-027] (partner 0.5 µM) returned a relative viability of 0.581.

`COCC1(CO)C(=O)C2CCN1CC2` (centres undefined) [PRIMA-1MET] + N=C(N)NC(=N)NCCc1ccccc1 [Phenformin] (partner 250 µM) came in with a relative viability of 0.481.

`COCC1(CO)C(=O)C2CCN1CC2` (centres undefined) [PRIMA-1MET] + Cc1nc(Nc2ncc(C(=O)Nc3c(C)cccc3Cl)s2)cc(N2CCN(CCO)CC2)n1 [Dasatinib] (partner 0.075 µM) yielded a relative viability of 0.626.

The same assay, now with this note: first compound 0.6325 µM.
Compound `COCC1(CO)C(=O)C2CCN1CC2` (centres undefined) [PRIMA-1MET] + Cc1cc(Nc2cc(N3CCN(C)CC3)nc(Sc3ccc(NC(=O)C4CC4)cc3)n2)n[nH]1 [Tozasertib] (partner 0.1 µM) showed a relative viability of 0.2.

Compound `COCC1(CO)C(=O)C2CCN1CC2` (centres undefined) [PRIMA-1MET] + COc1cc2c(Oc3ccc(NC(=O)C4(C(=O)Nc5ccc(F)cc5)CC4)cc3F)ccnc2cc1OCCCN1CCOCC1 [Foretinib] (partner 0.25 µM) had a relative viability of 0.838.
